Common to all, as to test: DTP human tumour cell line panel, 48 h
The test system of assay [1] is RPMI-8226 leukemia.
Assay [2] deals with KM20L2 colon.
Assay [3] concerns EKVX NSCLC.
For assay [4], the system named is TK-10 renal.
In assay [5] the test system is RXF 393 renal.
The subject of assay [6] is SN12C renal.
In assay [7] the test system is MDA-MB-435.
Assay [8] relates to HS 578T breast.
Assay [9] deals with OVCAR-4 ovarian.
For assay [10], the system named is CAKI-1 renal.

In general, TGI refers to the concentration at which net growth stops. A high value points to less potent growth arrest. For orientation: GI50 means the concentration giving 50% growth inhibition.

Several values for one entry are separate records, joined by “and”; a condition that tells them apart may be missing. Equal values may be shown once.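 These data come from cells grown in 96-well plates and exposed to compound for 48 hours at five concentrations. GI50: concentration for 50% inhibition of growth. TGI is the concentration that stops growth completely.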

With `Nc1nc(SCc2ccccc2Cl)c2[nH]cnc2n1`, the TGI is > 100 µM in [1]; > 100 µM in assay [2]; > 100 µM in assay [3]; 67 µM in [4]; > 100 µM in [5]; > 100 µM in [6].
`CCC(=O)OCN(C)c1nc(N(C)COC(=O)CC)nc(N(C)COC(=O)CC)n1`: the total growth inhibition concentration (TGI) in [1] was 76 µM; in [7], > 100 µM; in assay [4], > 100 µM; in assay [8], > 100 µM; in [9] it was > 100 µM; in assay [10] it was > 100 µM. For the same compound, the TGI in assay [5] is 25.5 µM; in assay [6], > 100 µM.
`Cc1c2ccc3ccccc3c2c[n+]2ccccc12`: the TGI was 66.2 µM in assay [1]; 35.2 µM in [7]; > 64.1 µM in [2]; > 44.1 µM in assay [3]; > 100 µM in assay [4]; 14.9 µM in assay [8]. Further, the TGI is 38.8 µM in [9], > 100 µM in assay [10], > 84.4 µM in assay [5] and 13.4 µM in [6].
Take `CCCC(=O)[O-].CCCC(=O)[O-].NCCN.NCCN.[Co+3].[O-][Cl+3]([O-])([O-])[O-]`: the total growth inhibition concentration (TGI) in assay [1], in assay [2], in assay [3], in assay [4], in assay [9] and in assay [6] was > 100 µM throughout. Also, the GI50 in assay [2] is > 100 µM.
Turning to `CCCO[C@@H]1[C@@H](OC(C)=O)[C@@H](OC(C)=O)C(C)(C)/C=C/[C@H](C)C(=O)[C@@]2(OC(C)=O)C[C@@](C)(OC(C)=O)[C@H](OC(C)=O)[C@@H]2[C@H]2OC(=O)CC[C@@]12OC(=O)c1ccccc1`, the TGI in assay [7], in [3], in assay [4], in [8], in [9] and in assay [10] was > 25 µM each time. Moreover, the TGI in assay [5] and in assay [6] was > 25 µM in each case.
In the case of `CNC(C)C(O)c1ccc2oc3cc(=O)c4ccccc4c-3nc2c1` (stereo not given), the TGI in assay [1] is > 100 µM; in assay [7], 3.54 µM; in assay [3] it was > 100 µM; in assay [4], > 100 µM; in [8] it was 8.48 µM; in assay [9], 36.6 µM. For the same compound, the TGI was found to be 29.6 µM in [10], 84.8 µM in assay [5] and 25.1 µM in [6].
On to `N[C@H](Cc1ccc2oc3cc(=O)c4ccccc4c-3nc2c1)C(=O)O`, for which the total growth inhibition concentration (TGI) is 83.8 µM in assay [1]; 30.3 µM in assay [7]; > 100 µM in [3]; > 100 µM in assay [4]; > 100 µM in assay [8]; > 100 µM in [9]. For the same compound, the concentration for total growth inhibition (TGI) in assay [10], in assay [5] and in assay [6] was > 100 µM throughout.
With `O=C1c2ccccc2OCC12OC21C=CC(Cl)=CC1` (stereo not given), the total growth inhibition concentration (TGI) in assay [1] was 47.4 µM; in assay [7], 51.5 µM; in assay [3], 51.8 µM; in assay [4], > 100 µM; in [9], 46.4 µM; in assay [5], 46.8 µM. Also, in [6], the TGI came out at 35.3 µM.
In the case of `N#Cc1cc2c(cc1Cl)Sc1nnc(Nc3ccccc3)n1S2(=O)=O`, the concentration for total growth inhibition (TGI) in assay [1] was 9.17 µM; in [7], 4.8 µM; in assay [3], 7.95 µM; in assay [4] it was 13.3 µM; in assay [8] it was 6.63 µM; in [9] it was 7.79 µM. For the same compound, the figures for the TGI in assay [10], in [5] and in assay [6] were 3.34 µM, 4.48 µM and 3.24 µM, respectively.
On to `CCCn1cnc2c(SCc3ccc(Cl)cc3)nc(N)nc21`, for which the TGI in assay [1] was 40.2 µM; in assay [7], 57.8 µM; in assay [3], 43.5 µM; in assay [4], 55.1 µM; in [8], > 100 µM; in assay [9], > 100 µM. The values for the total growth inhibition concentration (TGI) in assay [10], in [5] and in assay [6] were 82 µM, > 100 µM and 83.3 µM, respectively.
For the compound `C/C(=N\NC(=S)N1CCCC1)c1nc2ncccc2[nH]1`, the TGI in assay [1] was 39.4 µM; in [7], > 100 µM; in assay [4] it was 45 µM; in assay [8], > 100 µM; in assay [9], 18.6 µM; in assay [10], 37.1 µM. Moreover, the total growth inhibition concentration (TGI) in [6] was > 100 µM.
With `Cc1ccc(CSC(N)=Nc2ccccc2)cc1C`, the TGI in assay [1] is 75.9 µM; in assay [7], 30.7 µM; in assay [3], 75.8 µM; in [4], 86.7 µM; in [8], 49.1 µM; in assay [9], 36.5 µM. In addition, the figures for the TGI in assay [10], in assay [5] and in assay [6] were 60.9 µM, 33.4 µM and 38.5 µM, respectively.
Turning to `COc1ccc(C2COc3c(ccc(O)c3C)C2)cc1OC` (stereo not given), the concentration for total growth inhibition (TGI) is 166 µM in assay [1]; > 200 µM in assay [2]; > 200 µM in [3]; > 200 µM in [9]; > 200 µM in assay [10]; 131 µM in assay [5]. Moreover, the concentration for total growth inhibition (TGI) in [6] is > 200 µM.
Regarding `CCOC(=O)c1c(OCC)[nH]c(=O)c(C(c2cccs2)c2c(O)c(C(=O)OCC)c(OCC)[nH]c2=O)c1O`, the TGI in assay [1] was > 100 µM; in assay [7], 32.4 µM; in [3] it was 32.7 µM; in assay [4], 63.7 µM; in assay [8] it was > 100 µM; in assay [9] it was 76 µM. The values for the TGI in [10], in assay [5] and in [6] were 65.4 µM, 19 µM and 34.6 µM, respectively.
Take `Cc1nc2ccc(S(=O)(=O)Nc3nccs3)cc2c(=O)n1NS(=O)(=O)c1nccs1`: the TGI in assay [1], in assay [7], in [3], in assay [4], in [8] and in assay [9] was > 100 µM throughout. Further, the TGI in assay [10], in [5] and in assay [6] was > 100 µM each time.
In the case of `COC(=O)C1=C(OC)[C@H]2C#C/C=C\C#C[C@@H]3Nc4c(cc(O)c5c4C(=O)c4ccccc4C5=O)[C@]24O[C@@]34[C@H]1C`, the TGI in assay [1] was determined as 0.0188 µM; in assay [7], 0.0448 µM; in [3] it was 0.0335 µM; in assay [4] it was 0.176 µM; in assay [8] it was 3.82 µM; in [9], 0.2 µM. Besides, the TGI in assay [10] and in [6] was < 0.01 µM each time.
Regarding `COc1ccc(CNc2nc(NC3CCCCC3)nc(NC3CCCCC3)n2)cc1`, the TGI in [7], in assay [3], in assay [4], in assay [8], in assay [9] and in assay [10] was > 100 µM each time. The TGI in assay [5] is 7.94 µM; in assay [6], > 100 µM.
For the compound `CN(C)CCCNc1ccc2ncn3c4ccc(O)cc4c(=O)c1c23`, the TGI in assay [1] came to 18.2 µM; in assay [7], 19.3 µM; in [2] it was 14.4 µM; in assay [3], 16.6 µM; in assay [4], 19.8 µM; in [8] it was 13.6 µM. Also, the total growth inhibition concentration (TGI) is 8.01 µM in assay [9], 1.59 µM in [10], 2.91 µM in assay [5] and 16.2 µM in [6].
For the compound `O=C(CBr)c1ccc2cc(Br)c3ccccc3c2c1`, the concentration for total growth inhibition (TGI) in [1] was > 100 µM; in [7], 42.6 µM; in assay [3], 54.5 µM; in assay [4], 36.9 µM; in assay [8] it was 59.6 µM; in assay [9], 58.9 µM. In addition, the TGI in assay [10] is 38 µM; in assay [5] it was 38.7 µM.
On to `C[n+]1c2ccccc2c(NC(CCCN=C(N)N)C(=O)O)c2ccccc21` (stereo not given), for which the concentration for total growth inhibition (TGI) in [1], in assay [2], in [3], in assay [4], in assay [9] and in assay [10] was > 100 µM throughout. Further, the TGI in assay [5] and in [6] was > 100 µM throughout.
In the case of `O=C(N[C@@H](Cc1coc2ccccc12)B(O)O)[C@@H]1C[C@H]2CC[C@@H]1O2`, the GI50 in assay [1] was 0.45 µM; in assay [7], 1.76 µM; in assay [3], 22.7 µM; in assay [4], 2.44 µM; in assay [8], 3.81 µM; in assay [9], 7.36 µM. Further, the GI50 is 4.47 µM in assay [10], 1.86 µM in assay [5] and 9.24 µM in assay [6]. Moreover, the TGI is 5.2 µM in assay [1]; 4.04 µM in assay [7]; > 100 µM in assay [3]; 11.5 µM in assay [4]; 66.6 µM in assay [8]; > 100 µM in [9]. The TGI in [10] was > 100 µM; in [5], 5.94 µM; in [6], > 100 µM.
In the case of `COc1ccc(/C=N/n2cnc3c(c2=O)SC(=C(C#N)C#N)N3c2ccccc2)cc1`, the concentration for total growth inhibition (TGI) in assay [1] and in [4] was > 100 µM in each case.
Take `CCC1CC(O)c2c(O)c3c(c(O)c2C1O)C(=O)c1cccc(O)c1C3=O` (stereo not given) (tested in a mixture with another compound): the TGI in assay [1] is 0.0663 µM; in assay [7] it was 0.0713 µM and 0.0207 µM; in assay [3], 0.0864 µM and 0.192 µM; in assay [8], 0.331 µM; in [9], 0.0932 µM and 0.0821 µM; in assay [10] it was 0.0706 µM. The concentration for total growth inhibition (TGI) in assay [5] was 0.0326 µM and 0.0459 µM; in assay [6] it was 1.05 µM.
In the case of `C=CCCC1(C)CCCNC1=S` (stereo not given), the concentration for total growth inhibition (TGI) in assay [1], in [2], in assay [3], in assay [4], in assay [9] and in assay [5] was > 100 µM throughout. In [6], the TGI was > 100 µM.

Values taken from PubChem BioAssay (NCI).
